Laboratory results: US9981975B2, “Pyrrolotriazine compounds as tam inhibitors” (Incyte Corporation, priority 2016, dated 2018)

Tests used:
phosphor-Axl = phosphor-Axl (Homo sapiens (Human), UniProt P30530); experiment: TAM Enzymatic Assay (HTRF), Axl; format: biochemical; details: recombinant autophosphorylated Axl, 60 min, room temperature
Method: Autophosphorylation of Axl was carried out by incubating the recombinant Axl protein (Life Technologies, PV4275) in buffer containing 50 mM Tris, pH7.5, 0.2 mg/ml Axl, 5 mM ATP, 20 mM MgCl2 and 2 mM DTT at room temperature for 1 hour.
(§1) The kinase assay buffer contained 50 mM HEPES, pH7.5, 10 mM MgCl2, 1 mM EGTA, 0.01% NP-40 and 2 mM DTT. 0.1 ul test compounds dissolved in DMSO were transferred from compound plates to white 384-well assay plates (Greiner […] plates). […] 4 ul enzyme solution (or assay buffer for the enzyme blank) was added to the appropriate wells in each plate, and then 4 ul/well substrate solution was added to initiate the reaction. The plate was protected from light and incubated at room temperature for 60 min. […] The plate was incubated for 1 h at room temperature, and HTRF (homogenous time resolved fluorescence) signal was measured on a PHERAstar FS plate reader (BMG labtech). Percentage of inhibition was calculated for each concentration and IC50 value was generated from curve fitting with GraphPad Prism software.

Tyro3 = Tyro3 (Homo sapiens (Human), UniProt Q06418); experiment: TAM Enzymatic Assay (HTRF), Tyro3; format: biochemical; details: Tyro3, 60 min, room temperature
Method: as §1

Chain of phosphor-Axl (P30530 26-894): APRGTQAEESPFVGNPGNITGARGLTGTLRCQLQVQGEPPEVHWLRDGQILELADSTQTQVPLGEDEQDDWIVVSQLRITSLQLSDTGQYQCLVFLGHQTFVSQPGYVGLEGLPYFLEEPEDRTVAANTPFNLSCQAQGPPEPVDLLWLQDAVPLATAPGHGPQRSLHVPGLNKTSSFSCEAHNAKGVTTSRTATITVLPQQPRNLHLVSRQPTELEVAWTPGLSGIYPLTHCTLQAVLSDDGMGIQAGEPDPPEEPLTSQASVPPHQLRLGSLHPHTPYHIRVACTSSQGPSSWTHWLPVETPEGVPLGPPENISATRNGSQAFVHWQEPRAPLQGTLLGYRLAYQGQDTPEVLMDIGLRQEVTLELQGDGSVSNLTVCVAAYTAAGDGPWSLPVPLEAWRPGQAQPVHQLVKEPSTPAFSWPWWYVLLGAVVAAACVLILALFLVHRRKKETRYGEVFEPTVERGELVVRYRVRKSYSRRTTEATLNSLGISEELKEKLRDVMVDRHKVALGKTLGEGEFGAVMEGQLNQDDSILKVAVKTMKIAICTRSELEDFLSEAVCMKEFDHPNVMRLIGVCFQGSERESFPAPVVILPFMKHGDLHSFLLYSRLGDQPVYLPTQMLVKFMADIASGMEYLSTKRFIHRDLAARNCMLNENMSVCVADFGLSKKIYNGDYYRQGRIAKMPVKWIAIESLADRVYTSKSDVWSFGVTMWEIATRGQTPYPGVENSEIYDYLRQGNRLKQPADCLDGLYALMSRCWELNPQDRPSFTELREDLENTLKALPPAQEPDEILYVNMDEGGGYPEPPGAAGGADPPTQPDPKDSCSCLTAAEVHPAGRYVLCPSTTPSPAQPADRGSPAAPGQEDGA
Chain of Tyro3 (Q06418 41-890): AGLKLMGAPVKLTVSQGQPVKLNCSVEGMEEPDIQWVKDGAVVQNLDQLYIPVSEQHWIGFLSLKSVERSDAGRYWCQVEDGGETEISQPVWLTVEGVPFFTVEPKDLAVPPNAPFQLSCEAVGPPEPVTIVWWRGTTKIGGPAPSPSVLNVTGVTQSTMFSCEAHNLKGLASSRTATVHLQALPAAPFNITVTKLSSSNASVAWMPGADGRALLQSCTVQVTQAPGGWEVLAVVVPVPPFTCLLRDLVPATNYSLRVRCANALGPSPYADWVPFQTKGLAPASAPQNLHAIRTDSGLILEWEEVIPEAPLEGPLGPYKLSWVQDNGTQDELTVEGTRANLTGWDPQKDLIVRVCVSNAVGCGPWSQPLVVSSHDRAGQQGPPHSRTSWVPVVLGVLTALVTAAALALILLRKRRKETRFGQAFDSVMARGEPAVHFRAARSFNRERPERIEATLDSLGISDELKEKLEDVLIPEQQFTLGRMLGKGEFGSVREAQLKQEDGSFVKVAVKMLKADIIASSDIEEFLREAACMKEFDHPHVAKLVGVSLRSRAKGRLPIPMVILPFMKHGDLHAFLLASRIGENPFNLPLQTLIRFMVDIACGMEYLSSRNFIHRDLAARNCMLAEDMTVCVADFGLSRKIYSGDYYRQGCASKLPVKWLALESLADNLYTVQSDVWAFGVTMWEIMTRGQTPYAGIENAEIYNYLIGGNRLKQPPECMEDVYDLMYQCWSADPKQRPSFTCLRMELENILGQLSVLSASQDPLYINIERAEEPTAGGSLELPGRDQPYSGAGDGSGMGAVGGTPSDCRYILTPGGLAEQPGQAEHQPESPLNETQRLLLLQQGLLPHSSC

## CCN(C)C(=O)N1CCC(c2cc(-c3ccc(NC(=O)c4cc5c(n(-c6ccc(F)cc6)c4=O)CCCC5=O)cc3)c3c(N)ncnn23)CC1 [Example 57, N-{4-[4-Amino-7-(1-{[ethyl(methyl)amino]carbonyl}piperidin-4-yl)pyrrolo[2,1-f][1,2,4]triazin-5-yl]phenyl}-1-(4-fluorophenyl)-2,5-dioxo-1,2,5,6,7,8-hexahydroquinoline-3-carboxamide]
phosphor-Axl
  IC50: ≤ 5 nM
Tyro3
  IC50: > 100 nM

## CCN(C)C(=O)N1CCC(c2cc(-c3ccc(NC(=O)c4cc5c(n(-c6ccc(F)cc6)c4=O)CCCC5=O)cc3F)c3c(N)ncnn23)CC1 [Example 58, N-{4-[4-Amino-7-(1-{[ethyl(methyl)amino]carbonyl}piperidin-4-yl)pyrrolo[2,1-f][1,2,4]triazin-5-yl]-3-fluorophenyl}-1-(4-fluorophenyl)-2,5-dioxo-1,2,5,6,7,8-hexahydroquinoline-3-carboxamide]
phosphor-Axl
  IC50: ≤ 5 nM
Tyro3
  IC50: > 100 nM

## Nc1ncnn2c(C3CCN(CCO)CC3)cc(-c3ccc(NC(=O)c4cc5c(n(-c6ccc(F)cc6)c4=O)CCCC5=O)cc3)c12 [Example 59, N-(4-{4-Amino-7-[1-(2-hydroxyethyl)piperidin-4-yl]pyrrolo[2,1-f][1,2,4]triazin-5-yl}phenyl)-1-(4-fluorophenyl)-2,5-dioxo-1,2,5,6,7,8-hexahydroquinoline-3-carboxamide]
phosphor-Axl
  IC50: ≤ 5 nM
Tyro3
  IC50: > 100 nM

## Nc1ncnn2c(C3CCN(CCO)CC3)cc(-c3ccc(NC(=O)c4cc5c(n(-c6ccc(F)cc6)c4=O)CCCC5=O)cc3F)c12 [Example 60, N-(4-{4-Amino-7-[1-(2-hydroxyethyl)piperidin-4-yl]pyrrolo[2,1-f][1,2,4]triazin-5-yl}-3-fluorophenyl)-1-(4-fluorophenyl)-2,5-dioxo-1,2,5,6,7,8-hexahydroquinoline-3-carboxamide]
phosphor-Axl
  IC50: ≤ 5 nM

## CCN(C)C(=O)N1CCC(c2cc(-c3ccc(NC(=O)c4cn(C(C)C)c(=O)n(-c5ccc(F)cc5)c4=O)cc3)c3c(N)ncnn23)CC1 [Example 66, N-(4-(4-Amino-7-(1-(ethyl(methyl)carbamoyl)piperidin-4-yl)pyrrolo[1,2-f][1,2,4]triazin-5-yl)phenyl)-3-(4-fluorophenyl)-1-isopropyl-2,4-dioxo-1,2,3,4-tetrahydropyrimidine-5-carboxamide]
phosphor-Axl
  IC50: ≤ 5 nM

## CCN(C)C(=O)N1CCC(c2cc(-c3ccc(NC(=O)c4cn(C(C)C)c(=O)n(-c5ccccc5F)c4=O)cc3)c3c(N)ncnn23)CC1 [Example 69, N-(4-(4-Amino-7-(1-(ethyl(methyl)carbamoyl)piperidin-4-yl)pyrrolo[1,2-f][1,2,4]triazin-5-yl)phenyl)-3-(2-fluorophenyl)-1-isopropyl-2,4-dioxo-1,2,3,4-tetrahydropyrimidine-5-carboxamide]
phosphor-Axl
  IC50: ≤ 5 nM
Tyro3
  IC50: > 100 nM

## CC(C)C(=O)N1CCC(c2cc(-c3ccc(NC(=O)c4cn(C(C)C)c(=O)n(-c5cccc(F)c5)c4=O)cc3)c3c(N)ncnn23)CC1 [Example 71, N-(4-(4-Amino-7-(1-isobutyrylpiperidin-4-yl)pyrrolo[1,2-f][1,2,4]triazin-5-yl)phenyl)-3-(3-fluorophenyl)-1-isopropyl-2,4-dioxo-1,2,3,4-tetrahydropyrimidine-5-carboxamide]
phosphor-Axl
  IC50: ≤ 5 nM

## CCn1cc(C(=O)Nc2ccc(-c3cc(C4CCN(C(=O)N(C)C)CC4)n4ncnc(N)c34)cc2)c(=O)n(-c2cccc(F)c2)c1=O [Example 72, N-(4-(4-Amino-7-(1-(dimethylcarbamoyl)piperidin-4-yl)pyrrolo[1,2-f][1,2,4]triazin-5-yl)phenyl)-1-ethyl-3-(3-fluorophenyl)-2,4-dioxo-1,2,3,4-tetrahydropyrimidine-5-carboxamide]
phosphor-Axl
  IC50: ≤ 5 nM
Tyro3
  IC50: > 100 nM

## CCn1cc(C(=O)Nc2ccc(-c3cc(C4CCN(C(=O)C(C)C)CC4)n4ncnc(N)c34)cc2)c(=O)n(-c2cccc(F)c2)c1=O [Example 73, N-(4-(4-Amino-7-(1-isobutyrylpiperidin-4-yl)pyrrolo[1,2-f][1,2,4]triazin-5-yl)phenyl)-1-ethyl-3-(3-fluorophenyl)-2,4-dioxo-1,2,3,4-tetrahydropyrimidine-5-carboxamide]
phosphor-Axl
  IC50: ≤ 5 nM
Tyro3
  IC50: > 100 nM

## Cc1nn(C)c(C)c1-c1cc(-c2ccc(NC(=O)c3cn(C(C)C)c(=O)n(-c4cccc(F)c4)c3=O)cc2)c2c(N)ncnn12 [Example 84, N-(4-(4-Amino-7-(1,3,5-trimethyl-1H-pyrazol-4-yl)pyrrolo[1,2-f][1,2,4]triazin-5-yl)phenyl)-3-(3-fluorophenyl)-1-isopropyl-2,4-dioxo-1,2,3,4-tetrahydropyrimidine-5-carboxamide]
Tyro3
  IC50: > 100 nM

## CC(C)n1cc(C(=O)Nc2ccc(-c3cc(C(=O)N(C)C)n4ncnc(N)c34)cc2)c(=O)n(-c2cccc(F)c2)c1=O [Example 86, 4-Amino-5-(4-(3-(3-fluorophenyl)-1-isopropyl-2,4-dioxo-1,2,3,4-tetrahydropyrimidine-5-carboxamido)phenyl)-N,N-dimethylpyrrolo[2,1-f][1,2,4]triazine-7-carboxamide]
Tyro3
  IC50: > 100 nM

## CC(C)C(=O)N1CCC(c2cc(-c3ccc(NC(=O)c4cn(C(C)C)c(=O)n(C5CCCCC5)c4=O)cc3)c3c(N)ncnn23)CC1 [Example 90, N-(4-(4-Amino-7-(1-isobutyrylpiperidin-4-yl)pyrrolo[2,1-f][1,2,4]triazin-5-yl)phenyl)-3-cyclohexyl-1-isopropyl-2,4-dioxo-1,2,3,4-tetrahydropyrimidine-5-carboxamide]
Tyro3
  IC50: > 100 nM

## Cc1c(-c2ccnn2C)c(=O)c(C(=O)Nc2ccc(-c3cc(C4CCN(C(=O)C(C)C)CC4)n4ncnc(N)c34)cc2)cn1C(C)C [Example 97, N-(4-(4-Amino-7-(1-isobutyrylpiperidin-4-yl)pyrrolo[2,1-f][1,2,4]triazin-5-yl)phenyl)-1-isopropyl-6-methyl-5-(1-methyl-1H-pyrazol-5-yl)-4-oxo-1,4-dihydropyridine-3-carboxamide]
phosphor-Axl
  IC50: ≤ 5 nM

## COc1ccn(-c2ccccc2)c(=O)c1C(=O)Nc1ccc(-c2c(Br)c(C3CCN(C(=O)C(C)C)CC3)n3ncnc(N)c23)cc1 [Example 100, N-(4-(4-Amino-6-bromo-7-(1-isobutyrylpiperidin-4-yl)pyrrolo[1,2-f][1,2,4]triazin-5-yl)phenyl)-4-methoxy-2-oxo-1-phenyl-1,2-dihydropyridine-3-carboxamide]
Tyro3
  IC50: > 100 nM

## Cc1ccc(-c2ccc(C(=O)Nc3ccc(-c4cc(C5CCN(C(=O)C(C)C)CC5)n5ncnc(N)c45)cc3)c(=O)n2-c2ccccc2)cn1 [Example 105, N-(4-(4-Amino-7-(1-isobutyrylpiperidin-4-yl)pyrrolo[2,1-f][1,2,4]triazin-5-yl)phenyl)-6′-methyl-6-oxo-1-phenyl-1,6-dihydro-[2,3′-bipyridine]-5-carboxamide]
phosphor-Axl
  IC50: ≤ 5 nM

## Cc1c(C(N)=O)cc(C(=O)Nc2ccc(-c3cc(C4CCN(C(=O)C(C)C)CC4)n4ncnc(N)c34)cc2)c(=O)n1-c1ccccc1 [Example 111a, N^3-(4-(4-Amino-7-(1-isobutyrylpiperidin-4-yl)pyrrolo[2,1-f][1,2,4]triazin-5-yl)phenyl)-6-methyl-2-oxo-1-phenyl-1,2-dihydropyridine-3,5-dicarboxamide]
Tyro3
  IC50: > 100 nM
